Measured values: PubChem BioAssay AID977621 (Broad Institute, 2014)
Records with an inconclusive call do not appear. Activity calls are given as the source filed them.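 Rule for the calls: active = Wild-type ribosome reporter drop at least double the humanized mutant ribosome reporter drop, growth loss under a set limit; inconclusive = no clear call, values can overlap the other calls; inactive = the rest.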

System: E. coli wild-type GFP strain growth, fluorescence, 24 h
Assay: growth inhibition of wild-type GFP E. coli, dose response, H69 mutant RFP, cherry-pick (AID 977621);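 note: wild-type GFP and H69 mutant RFP strains grown together 50/50 in each well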
[1] = E. coli mixed culture, 24 h, measured here: total growth OD600, test 2

Structure (SMILES)	AC50	AC50 (measured here: total growth OD600, test 2)	AC50 [1]
Nc1c(C(=O)NCCN2CCOCC2)c2nc3ccccc3nc2n1Cc1ccccc1	> 100 µM (inactive)	> 100 µM	–
O=C(COC(=O)c1ccc([N+](=O)[O-])o1)NC12CC3CC(CC(C3)C1)C2	> 100 µM (inactive)	–	> 100 µM
O=C(COn1nnc2ccc(C(F)(F)F)cc21)Nc1c(Cl)cccc1Cl	> 100 µM (inactive)	–	–
O=C(COc1cc(F)ccc1[N+](=O)[O-])NCCCc1ccccc1	–	–	> 100 µM
O=C(N[C@@H](Cc1ccccc1)C(=O)OCc1ccccc1)c1nc[nH]c1C(=O)NC1CCNCC1	> 100 µM (inactive)	–	–
CCOc1ccc(NC(=O)CN2C(=O)COc3ccc(S(=O)(=O)N4CCCC4)cc32)cc1	> 100 µM (inactive)	–	–
CCOC(=O)c1cc(C)nc(N2CCCCC2)c1C#N	–	–	> 100 µM
Cc1noc(C)c1S(=O)(=O)N(Cc1ccccc1)C(C)C	–	–	> 100 µM
O=C(CSc1ccc(-c2cccnc2)nn1)N1CCCc2ccccc21	> 100 µM (inactive)	–	> 100 µM
CCOC(=O)c1cnc2c(cnn2C)c1NCc1ccc(OC)cc1	> 100 µM (inactive)	–	> 100 µM
CCC(=O)Nc1nc2ccc(NC(=O)c3cc(OC)c(OC)c(OC)c3)cc2s1	> 100 µM (inactive)	–	–
CC(C)Oc1ccc(C(=O)Nc2cccc3cccnc23)cc1	–	–	> 100 µM
CC(NCc1ccc(S(N)(=O)=O)cc1)C(=O)Nc1cc([N+](=O)[O-])ccc1Cl (stereo unspecified)	> 100 µM (inactive)	–	–
CCOc1ncccc1C(=O)OCC(=O)NCCCc1ccccc1	–	–	> 100 µM
Cc1nn(-c2ccccc2)c(C)c1CN(C)C(=O)c1ccc(S(=O)(=O)NCc2ccco2)cc1	> 100 µM (inactive)	–	–
O=C(Cc1cccc2ccccc12)Nc1ccccc1C(=O)O	–	–	50.2 µM
CO[C@@H]1CN(C)C(=O)c2ccc(NC(=O)c3nc4ccccc4s3)cc2OC[C@@H](C)N(Cc2ccncc2)C[C@@H]1C	52 µM (inactive)	–	–
C=CCn1c(C)cc(C(=O)COC(=O)CNC(=O)c2ccccc2)c1C	–	–	44 µM
CCc1cc(C(=O)N2CCCC(C(=O)c3cccc4ccccc34)C2)n(C)n1 (stereo unspecified)	–	–	> 100 µM
COCCNc1cc(-c2ccccc2)nc2cc(-c3cccc(F)c3)nn12	> 100 µM (inactive)	–	–
CCN(CC)CCN(C(=O)c1ccc2c(c1)OCCO2)c1nc2cc(C)cc(C)c2s1	> 100 µM (inactive)	–	–
CCOc1ccc(S(=O)(=O)Nc2ccc(S(=O)(=O)N3CCCC3)cc2)cc1	> 100 µM (inactive)	–	–
O=C(CCNC(=O)c1ccco1)Nc1cccc(Br)c1	–	–	> 100 µM

Structure (SMILES)	AC50	AC50 (measured here: total growth OD600, test 2)	AC50 [1]
CC(NC(=O)c1ccncc1)c1ccc(Cl)cc1Cl (stereo unspecified)	–	–	> 100 µM
O=C(Cc1ccc(Br)cc1)Nc1cccc(-c2cn3c(n2)SCC3)c1	–	–	> 100 µM
Nc1ccc(C(=O)Nc2ccc3nc(-c4ccncc4)[nH]c3c2)cc1	> 100 µM (inactive)	–	–
CCOC(=O)c1nc(C)sc1-c1ccnn1S(=O)(=O)c1cccc(Cl)c1	> 100 µM (inactive)	–	45.7 µM
CCN(CC)S(=O)(=O)c1cc(NS(=O)(=O)c2cccc(Cl)c2Cl)ccc1C	> 100 µM (inactive)	–	33.4 µM
COc1ccc(NC(=O)c2sccc2-n2cccc2)cc1	> 100 µM (inactive)	–	–
CCOC(=O)c1c(C)nsc1NCc1ccccc1	–	–	> 100 µM
O=C(Nc1cccc(Cl)c1)N1C[C@H]2[C@@H](c3ccccc31)[C@H](CO)N2CC1CCCCC1	> 100 µM (inactive)	–	–
O=C(CSc1ccccc1)NCCCc1ccccc1	–	–	> 100 µM
O=C(Nc1cscc1S(=O)(=O)c1ccccc1)c1ccccc1Cl	> 100 µM (inactive)	–	–
Fc1cccc(Cl)c1CSc1ccc(-c2ccco2)nn1	–	–	> 100 µM
Cc1ccc(C2NC(=O)c3[nH]nc(-c4ccccc4)c32)cc1 (stereo unspecified)	> 100 µM (inactive)	–	42.3 µM
Cc1ccc(OCCn2c(=S)[nH]c3c(N)ncnc32)cc1	> 100 µM (inactive)	–	31.8 µM
CCN(CC(=O)Nc1cccc(S(=O)(=O)N2CCCC2)c1)CC(=O)Nc1ccccc1OC	–	–	> 100 µM
CC(=O)OC(COc1cccc(C)c1)Cn1cnc2ccccc21 (stereo unspecified)	–	–	48.6 µM
O=C(COC(=O)C1CC1)Nc1nc(-c2ccc(F)c(F)c2)cs1	–	–	> 100 µM
COc1ccc(OC)c(CN2CCCC(C(=O)c3ccccc3SC)C2)c1 (stereo unspecified)	> 100 µM (inactive)	–	–
CCCc1nc2cc(C)c(Br)c(C)n2c1CC1CCCCC1	> 100 µM (inactive)	–	48.9 µM
C[C@@H]1CCCCO[C@H](CN(C)C)[C@H](C)CN([C@H](C)CO)C(=O)c2cc(NC(=O)Nc3cccc4ccccc34)ccc2O1	–	–	> 100 µM
CCCCc1ccc(S(=O)(=O)Nc2ccc(C)c(NS(C)(=O)=O)c2)cc1	–	–	49.5 µM
COc1ccc(NC(=O)CCS(=O)(=O)c2ccccc2Cl)cc1S(=O)(=O)Nc1ccc(Cl)cc1	–	–	> 100 µM
Cc1cc(NCc2ccccn2)n2nc(C)c(-c3ccccc3)c2n1	–	–	49.3 µM
COc1cc(C(=O)NCCc2c[nH]c3ccccc23)ccc1OCc1c(C)noc1C	–	–	> 100 µM

Structure (SMILES)	AC50	AC50 (measured here: total growth OD600, test 2)	AC50 [1]
Cc1ccc(C#N)c(SCc2ccccc2F)n1	> 100 µM (inactive)	–	34.2 µM
O=S1(=O)c2ccc(Br)cc2OCCC2CCCCN21 (stereo unspecified)	> 100 µM (inactive)	–	> 100 µM
Cc1cc(Cl)ccc1OCCCC(=O)OCC(N)=O	–	–	> 100 µM
Cc1cc(C(=O)NCCC2=CCCCC2)ccc1[N+](=O)[O-]	> 100 µM (inactive)	–	–
CCN(C(=O)COC(=O)c1cc(-c2cccs2)nc2ccccc12)C1CCS(=O)(=O)C1 (stereo unspecified)	> 100 µM (inactive)	–	–
Cc1ccc(OCC(O)CN2CCN(c3ccccn3)CC2)c(C)c1 (stereo unspecified)	> 100 µM (inactive)	–	45.6 µM
Cc1ccc(S(=O)(=O)Nc2cccc(-c3ccc(N4CCCCCC4)nn3)c2)cc1	> 100 µM (inactive)	–	28.9 µM
COc1cccc(NC2=Nc3cccc4cccc2c34)c1	–	–	> 100 µM
O=C(c1cc(COc2c(F)cccc2F)on1)N1C[C@H]2CC[C@H]1C2	> 100 µM (inactive)	–	–
Cc1noc(C)c1NC(=O)Nc1ccc2c(c1)C(=O)N([C@H](C)CO)C[C@H](C)[C@H](CN(C)C(=O)Nc1ccc3c(c1)OCO3)OCCCC[C@@H](C)O2	–	–	> 100 µM
N#Cc1ccc(-c2ccc(C3[C@H]4CNC[C@@H]3N4S(=O)(=O)c3ccc(-c4ccccc4)cc3)cc2)cc1 (stereo partly specified)	–	–	> 100 µM
CCOC(=O)C(C)Sc1nc(N2CCOCC2)c2c(c1C#N)CC(C)(C)OC2 (stereo unspecified)	–	–	> 100 µM
Cc1ccc(SCC(=O)Nc2ccc(S(=O)(=O)Nc3nccs3)cc2)cc1	> 100 µM (inactive)	–	–
COc1ccc(C2=NN(C(=O)c3cccnc3)C(c3ccccc3)C2)cc1 (stereo unspecified)	–	–	1.05 µM
Cc1ccc(C(=O)CSc2nnc(COc3cccc4cccnc34)o2)cc1	> 100 µM (inactive)	–	46.3 µM
Cc1sc2ncn(CC(=O)Nc3ccccc3F)c(=O)c2c1-c1ccccc1	> 100 µM (inactive)	–	–
N#Cc1ccc(OCC(=O)N2CCN(S(=O)(=O)c3ccc(Cl)s3)CC2)cc1	> 100 µM (inactive)	–	–
O=C(Nc1ccc(Cl)cn1)c1ccc([N+](=O)[O-])o1	–	–	> 100 µM
C[C@@H]1CCCCO[C@@H](CN(C)C(=O)c2ccccc2)[C@H](C)CN([C@@H](C)CO)C(=O)c2cc(NC(=O)Cc3ccccc3)ccc2O1	> 100 µM (inactive)	–	> 100 µM
NS(=O)(=O)c1cccc(NC(=O)CSc2nnc(-c3ccccc3F)n2C2CC2)c1	> 100 µM (inactive)	–	–
CCOc1ccc(NC(=O)CN(C)CC(=O)Nc2ccc(Br)cc2F)cc1OCC	> 100 µM (inactive)	–	> 100 µM
Cc1ccccc1-n1ncc2c(SCC(=O)N3c4ccccc4CC3C)ncnc21 (stereo unspecified)	> 100 µM (inactive)	–	–
O=C1CCCN1CCCNc1ncnc2c1[nH]c1ccc(Cl)cc12	–	–	40.5 µM

Structure (SMILES)	AC50	AC50 (measured here: total growth OD600, test 2)	AC50 [1]
COc1ccc(NC(=O)Nc2cccc3c2O[C@H](CN(C)S(=O)(=O)c2ccc(Cl)cc2)[C@H](C)CN([C@@H](C)CO)C3=O)cc1	> 100 µM (inactive)	–	6.44 µM
CN(Cc1c(F)cccc1Cl)C(=O)c1ccc(NS(=O)(=O)c2ccc3[nH]c(=O)[nH]c3c2)cc1	> 100 µM (inactive)	–	–
O=C(O)c1ccc(COc2ccc3ccccc3c2)o1	> 100 µM (inactive)	–	> 100 µM
COc1ccc(C)c2sc(N(CCN(C)C)C(=O)c3ccc(S(=O)(=O)N(C)c4ccccc4)cc3)nc12	> 100 µM (inactive)	–	–
Cc1cc(C)c(S(=O)(=O)NCCOc2ccccc2)c(C)c1-n1cnnn1	> 100 µM (inactive)	–	–
C=CCn1c(-c2cc3cccc(OC)c3o2)n[nH]c1=S	> 100 µM (inactive)	–	–
CC1(C(=O)Nc2ccc3c(c2)OCCO3)CSCC(=O)N1CCOc1ccccc1 (stereo unspecified)	> 100 µM (inactive)	–	> 100 µM
CC1(C(=O)NS(=O)(=O)c2ccc3c(c2)CCO3)CCN1C(=O)c1ccccc1CCc1ccccc1 (stereo unspecified)	> 100 µM (inactive)	–	–
CCCC#C/C(CCC)=C1\c2ccccc2C(=O)N1c1ccccc1	–	–	> 100 µM
CCOC(=O)c1c(NC(=O)CN2CCC(C)CC2)sc(C)c1C	–	–	48.5 µM
COc1ccc(OC)c(NC(=O)c2c3c(nc4ccccc24)CCC3)c1	> 100 µM (inactive)	–	–
Cc1ccc(-c2cc[n+](Cc3ccccc3)cc2)cc1	–	–	> 100 µM
COc1ccc(-n2c(-c3ccc(C)cc3)nc3ccccc3c2=O)cc1	> 100 µM (inactive)	–	–
COc1ccc(CNc2ncnc3cc(OC)c(OC)cc23)cc1OC	> 100 µM (inactive)	–	–
Cc1[nH]nc2c1C(c1ccc(F)cc1)N(Cc1ccccc1)C2=O (stereo unspecified)	> 100 µM (inactive)	–	–
CCOC(=O)c1c(CS(=O)(=O)c2ccccc2)n(C)c2cc(Br)c(O)cc12	> 100 µM (inactive)	–	> 100 µM
CC(C)CN1C(=O)c2ccc(C(=O)Nc3ccncc3)cc2C1=O	> 100 µM (inactive)	–	> 100 µM
CCC(=O)Nc1sc(Cc2ccc3c(c2)OCO3)c(C)c1C(N)=O	> 100 µM (inactive)	–	51.4 µM
COc1ccccc1C1CCN(C(=O)c2ccco2)CC1	–	–	> 100 µM
COC(=O)C(Cc1csc2ccc(Cl)cc12)NC(=O)c1ccc(Cl)cc1 (stereo unspecified)	> 100 µM (inactive)	–	18.4 µM
COC(=O)CN1C(=S)N(c2ccc(Cl)cc2)C(=O)C1CC(=O)Nc1ccc(F)cc1 (stereo unspecified)	> 100 µM (inactive)	–	> 100 µM
CC(NC(=O)C12CC3CC(C)(CC(C)(C3)C1)C2)c1ccncc1 (stereo unspecified)	–	–	> 100 µM
Cc1ccc(C(=O)OCC(=O)c2c[nH]c3ccccc23)cc1NC(=O)c1ccco1	> 100 µM (inactive)	–	–
